# Measured values published in patent US20190307749A1, “Mitochondria-Division Inhibitor 1 Protects Against Amyloid-B Induced Mitochondrial Fragmentation and Synaptic Damage in Alzheimer's Disease” (Texas Tech University System, priority 2018, published 2019).
# Marks after values point to notes of the source that are not given here.
# How the values were obtained:
# [1] = system: N2a cells; assay: H2O2 production (Amplex Red H2O2 assay); format: cell-based, mouse
# Procedure: (§1) Tissue culture: The N2a cells were grown for 3 days in a serum-free medium (1:1 mixture of DMEM and OptiMEM, plus penicillin and streptomycin [Invitrogen, Carlsbad, Calif., USA]) until the cells developed neuronal processes.
# Mitochondrial functional assays. H2O2 production: Using an Amplex® Red H2O2 assay kit (Molecular Probes, Eugene, Oreg., USA), H2O2 production was measured using cell pellets, as described in Manczak and Reddy. Briefly, H2O2 production was measured in the protein lysates prepared from cell pellets of control untreated N2a cells and 4 treatment groups (FIG. 1). A BCA protein assay kit (Pierce Biotechnology) was used to estimate protein concentration. The reaction mixture contained mitochondrial proteins (μg/μl), Amplex Red reagents (50 μM), horseradish peroxidase (0.1 U/ml), and a reaction buffer (1×). The mixture was incubated at room temperature for 30 minutes, followed by spectrophotometer readings of fluorescence (570 nm). Finally, H2O2 production was determined, using a standard curve equation expressed in nmol/μg mitochondrial protein.
# [2] = system: N2a cells; assay: Cytochrome c oxidase activity; format: cell-based, mouse
# Procedure: as §1
# Cytochrome c oxidase activity: Cytochrome oxidase activity was measured in each of the 5 groups of N2a cells. Enzyme activity was assayed spectrophotometrically using a Sigma Kit (Sigma-Aldrich) following manufacturer's instructions. […] The decrease in absorbance at […] was recorded for 1-min reactions at 10-sec intervals. Cytochrome oxidase activity was measured according to the following formula: mU/mg total mitochondrial protein=(A/min sample−(A/min blank)×1.1 mg protein×21.84). The protein concentrations were determined following the BCA method.
# [3] = system: mouse neuroblastoma (N2a) cells; assay: Quantitative real-time RT-PCR: mRNA expression of mitochondrial dynamics, biogenesis and synaptic genes; format: cell-based; conditions: N2a cells
# Procedure: as §1
# Quantitative real-time RT-PCR: Using the reagent TriZol (Invitrogen), total RNA was isolated from cell pellets from the 5 N2a cell groups (FIG. 1). Using primer express software (Applied Biosystems, Carlsbad, Calif., USA), the inventors designed the oligonucleotide primers for the housekeeping genes 3-actin, GAPDH, mitochondrial structural genes, fission genes (Drp1, Fis1), fusion genes (MFN1, MFN2, Opa1), biogenesis genes (PGC1c, Nrf1, Nrf2, TFAM), and synaptic genes (synaptophysin and PSD95) (see Table 1 for primer sequences and amplicon sizes). Using SYBR-Green chemistry-based quantitative real-time RT-PCR, mRNA expressions of the above-mentioned genes were measured, as described by Manczak and Reddy.
# The mRNA transcript level was normalized against β-actin and the GAPDH at each dilution. The standard curve was the normalized mRNA transcript level, plotted against the log-value of the input cDNA concentration at each dilution. To compare β-actin, GAPDH, and relative quantification was performed according to the (CT) method (Applied Biosystems). […] The ΔCT-value was obtained by subtracting the average β-actin CT value from the average CT-value of the synaptic mitochondrial ETC genes and the mitochondrial structural genes. The ΔCT of untreated cells was used as the calibrator. The fold change was calculated according to the formula 2^-(Δ ΔCT), where ΔΔCT is the difference between ΔCT and the ΔCT calibrator value. To determine the statistical significance of mRNA expression, the CT value differences between the untreated cells and other experimental groups of cells were used in relation to β-actin normalization. Statistical significance was calculated, using one-way ANOVA.
# [4] = Aβ42 6 hrs then Mdivi1 24 hrs (Aβ42+Mdivi1), vs untreated N2a cells
# [5] = Mdivi1 24 hrs then Aβ42 6 hrs (Mdivi1+Aβ42), vs untreated N2a cells
# [6] = Mdivi1 24 hrs or Aβ42 20 μM 6 hrs alone, vs untreated N2a cells
# [7] = Aβ42 6 hrs then Mdivi1 24 hrs (Aβ42+Mdivi1), vs Aβ42 treated cells
# [8] = Mdivi1 24 hrs then Aβ42 6 hrs (Mdivi1+Aβ42), vs Aβ42 treated cells
structure (smiles),measurement,setting,value
"COc1cc(-n2c(S)nc3ccccc3c2=O)c(Cl)cc1Cl [Mdivi1, 3-(2,4-Dichloro-5-methoxyphenyl)-2,3-dihydro-2-thioxo-4(1H)-quinazolinone]",H2O2 levels,"[1]; Aβ42 6 hrs then Mdivi1 24 hrs (Aβ42+Mdivi1), vs N2a+Aβ42 cells",significantly lower
same,H2O2 levels,[1]; [4],unchanged
same,H2O2 levels,"[1]; Mdivi1 24 hrs then Aβ42 6 hrs (Mdivi1+Aβ42), vs N2a+Aβ42 cells",significantly lower
same,H2O2 levels,[1]; [5],unchanged
same,Cytochrome oxidase activity,"[2]; Aβ42 6 hrs then Mdivi1 24 hrs (Aβ42+Mdivi1), vs cells treated with Aβ42 alone",significantly increased
same,Cytochrome oxidase activity,[2]; [4],increased levels
same,Cytochrome oxidase activity,[2]; [6],increased levels
same,Cytochrome oxidase activity,"[2]; Mdivi1 24 hrs then Aβ42 6 hrs (Mdivi1+Aβ42), vs cells treated with Aβ42 alone",significantly increased
same,Cytochrome oxidase activity,[2]; [5],increased levels
same,"Drp1 mRNA expression level, lower by fold",[3]; [7],1.5 fold
same,Drp1 mRNA fold change,[3]; [7],−1.5* fold
same,"Fis1 mRNA expression level, lower by fold",[3]; [7],1.7 fold
same,Fis1 mRNA fold change,[3]; [7],−1.7* fold
same,Mfn1 mRNA fold change,[3]; [7],1.6 fold
same,Mfn2 mRNA fold change,[3]; [7],1.6 fold
same,Nrf1 mRNA fold change,[3]; [7],2.0 fold
same,OPA1 mRNA fold change,[3]; [7],1.3 fold
same,PGC1α mRNA fold change,[3]; [7],8.1 fold
same,Synaptophysin mRNA fold change,[3]; [7],1.5 fold
same,CypD mRNA level,[3]; [4],unchanged
same,PGC1α mRNA fold change,[3]; [4],1.4 fold
same,PSD95 mRNA fold change,[3]; [4],4.8 fold
same,Synaptophysin mRNA fold change,[3]; [4],1.2 fold
same,TFAM mRNA fold change,[3]; [4],1.2 fold
same,Drp1 mRNA fold change,[3]; [6],−1.5* fold
same,"Drp1 mRNA level, fold decrease",[3]; [6],1.5 fold
same,Fis1 mRNA fold change,[3]; [6],−1.3 fold
same,"Fis1 mRNA level, fold decrease",[3]; [6],1.3 fold
same,Mfn1 mRNA fold change,[3]; [6],1.3 fold
same,Mfn2 mRNA fold change,[3]; [6],1.2 fold
same,Nrf1 mRNA fold change,[3]; [6],2.2 fold
same,Nrf2 mRNA fold change,[3]; [6],1.6 fold
same,OPA1 mRNA fold change,[3]; [6],1.2 fold
same,PGC1α mRNA fold change,[3]; [6],2.2 fold
same,PSD95 mRNA fold change,[3]; [6],5.1 fold
same,Synaptophysin mRNA fold change,[3]; [6],1.3 fold
same,TFAM mRNA fold change,[3]; [6],1.5 fold
same,"Drp1 mRNA expression level, lower by fold",[3]; [8],1.5 fold
same,Drp1 mRNA fold change,[3]; [8],−1.5* fold
same,"Fis1 mRNA expression level, lower by fold",[3]; [8],1.6 fold
same,Fis1 mRNA fold change,[3]; [8],−1.6* fold
same,Mfn2 mRNA fold change,[3]; [8],2.2 fold
same,Nrf1 mRNA fold change,[3]; [8],2.7 fold
same,Nrf2 mRNA fold change,[3]; [8],2.7 fold
same,OPA1 mRNA fold change,[3]; [8],2.3 fold
same,PGC1α mRNA fold change,[3]; [8],6.5 fold
same,PSD95 mRNA fold change,[3]; [8],3.8 fold
same,Synaptophysin mRNA fold change,[3]; [8],2.2 fold
same,TFAM mRNA fold change,[3]; [8],3.2 fold
same,Drp1 mRNA fold change,[3]; [5],−1.1 fold
same,Fis1 mRNA fold change,[3]; [5],−1.2 fold
same,Mfn1 mRNA fold change,[3]; [5],2.1 fold
same,Mfn2 mRNA fold change,[3]; [5],1.7 fold
same,Nrf1 mRNA fold change,[3]; [5],1.3 fold
same,Nrf2 mRNA fold change,[3]; [5],1.3 fold
same,OPA1 mRNA fold change,[3]; [5],1.9 fold
same,PGC1α mRNA fold change,[3]; [5],1.1 fold
same,PSD95 mRNA fold change,[3]; [5],1.5 fold
same,Synaptophysin mRNA fold change,[3]; [5],1.7 fold
same,TFAM mRNA fold change,[3]; [5],1.3 fold
